Results reported in US10590100B2, “Benzofuran derivatives for the treatment of CNS and other disorders” (WARNER BABCOCK INSTITUTE FOR GREEN CHEMISTRY, priority 2015, dated 2020).
pEC50: −log10 of the molar value.

Assays:
Format in all cases: biochemical
[1] = target: T1, zinc-independent Aβ42 aggregates (Homo sapiens, UniProt P05067); experiment: Bis-ANS fluorescence assay of disaggregation of zinc-independent Aβ42 aggregates; settings: for pEC50: Aβ42 15 μM, bis-ANS 15 μM, Tris-buffered saline, without Zn2+; for Change in bis-ANS fluorescence after addition of compound to zinc-independent Aβ42 aggregates: 15 μM Aβ42, no Zn2+, compound at 60.0 to 0.234 μM (FIG. 2)
T1 construct: 15 μM Aβ42 peptide in TrisHCl—NaCl buffer
T1 sequence (P05067 672-713 limits assumed): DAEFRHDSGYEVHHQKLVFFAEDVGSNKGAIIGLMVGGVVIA
Experimental: Bis-ANS was used as a fluorescent marker for Aβ42 aggregation and disaggregation so as to determine the efficacy, EC50, of each test compound in the presence or absence of zinc(II). Baseline fluorescence was established by monitoring the fluorescence of 15 μM bis-ANS in a TrisHCl-NaCl buffer (TrisHCl-NaCl buffer: 0.50 mM TrisHCl, 1.50 mM NaCl, pH 7.4) that contains 15 μM Aβ42. After 5 minutes, Zn(II) (as zinc(II) sulfate, 15 μM final concentration) was added to the Aβ42 solution, and the fluorescence intensity monitored for 24-40 minutes. Fluorescence increases following the addition of Zn(II) during the aggregation period. After the aggregation period, varying concentrations (60, 15, 3.75, 0.938, 0.234, or 0 μM final concentration) of a test compound were added, and the fluorescence intensity again monitored until it plateaus, typically 20-24 min. […] Fluorescence intensities were determined at 390 nm excitation wavelength/490 nm emission wavelength with a 475 nm cutoff. […] The responses I0-If, were calculated as the difference in the final fluorescent intensity If, c at the end of the assay for each concentration as compared to the final intensity I0 determined for the sample with no added derivative. The responses were normalized to the maximum response […] which is the final fluorescent intensity of the sample containing 60 μM test compound, Normalized response=(I0-If)/(I0-[…]). The fluorescent intensities were then fit to a 4-parameter sigmoidal logistic function to determine EC50. A representative example of disaggregation of spontaneously formed, zinc-independent Aβ42 aggregates by a test compound, BC-147, is given in FIG. 2. In the absence of zinc(II), soluble Aβ42 undergoes zinc-independent aggregation more slowly than aggregation in the presence of zinc(II). This spontaneous, zinc-independent aggregation of Aβ42 is detected by an increase in bis-ANS fluorescence. […] FIG. 2 depicts the disaggregation by BC-147 of the spontaneously formed, zinc-independent Aβ42 aggregates.

[2] = target: T2, amylin aggregates (Homo sapiens, UniProt P10997); experiment: Bis-ANS fluorescence assay of disaggregation of amylin aggregates; settings: 15 μM amylin; for pEC50: bis-ANS 15 μM, Tris-buffered saline, compound added after 24 hr aggregation
T2 construct: Amylin (15 μM) in TrisHCl—NaCl buffer was allowed to aggregate for 24 hr
T2 sequence (P10997 34-70 limits assumed): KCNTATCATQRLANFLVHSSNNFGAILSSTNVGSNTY
Experimental: Amylin (15 μM) in TrisHCl—NaCl buffer was allowed to aggregate for 24 hr, while monitoring the fluorescence of bis-ANS (15 μM) as a marker of amylin aggregation. Typically, the fluorescence increases during the aggregation period. After the aggregation period, varying concentrations (60, 15, 3.75, 0.938, 0.234, or 0 μM final concentration) of a test compound were then added to the sample, and the fluorescence intensity monitored until it plateaus, typically an additional 20-24 hr. Controls were simultaneously run in which the test compound was added to a sample that contained Bis-ANS but no amylin so as to determine any interfering intrinsic fluorescence of the test compound itself (see Table 1).
A series of assays was also carried out so as to determine the EC50 for EGCG, by addition of 60, 15, 3.75, 0.938, 0.234, or 0 μM EGCG after 24 hours, similarly to the methods used to assay the test compounds.

[3] = target: T3, zinc-induced Aβ42 aggregates (Homo sapiens, UniProt P05067); experiment: Bis-ANS fluorescence assay of disaggregation of zinc-induced Aβ42 aggregates; settings: for pEC50: Aβ42 15 μM, bis-ANS 15 μM, Tris-buffered saline, with 15 μM Zn2+
T3 construct: 15 μM Aβ42 peptide in TrisHCl—NaCl buffer
T3 sequence (P05067 672-713 limits assumed): as the sequence (P05067 672-713 limits assumed) above
Experimental: Bis-ANS was used as a fluorescent marker for Aβ42 aggregation and disaggregation so as to determine the efficacy, EC50, of each test compound in the presence or absence of zinc(II). Baseline fluorescence was established by monitoring the fluorescence of 15 μM bis-ANS in a TrisHCl-NaCl buffer (TrisHCl-NaCl buffer: 0.50 mM TrisHCl, 1.50 mM NaCl, pH 7.4) that contains 15 μM Aβ42. After 5 minutes, Zn(II) (as zinc(II) sulfate, 15 μM final concentration) was added to the Aβ42 solution, and the fluorescence intensity monitored for 24-40 minutes. Fluorescence increases following the addition of Zn(II) during the aggregation period. After the aggregation period, varying concentrations (60, 15, 3.75, 0.938, 0.234, or 0 μM final concentration) of a test compound were added, and the fluorescence intensity again monitored until it plateaus, typically 20-24 min. […] Fluorescence intensities were determined at 390 nm excitation wavelength/490 nm emission wavelength with a 475 nm cutoff. […] The responses I0-If, were calculated as the difference in the final fluorescent intensity If, c at the end of the assay for each concentration as compared to the final intensity I0 determined for the sample with no added derivative. The responses were normalized to the maximum response […] which is the final fluorescent intensity of the sample containing 60 μM test compound, Normalized response=(I0-If)/(I0-[…]). The fluorescent intensities were then fit to a 4-parameter sigmoidal logistic function to determine EC50. In the presence of soluble Aβ42, zinc(II) induces aggregation within milliseconds. This aggregation is detected by an increase in bis-ANS fluorescence. Disaggregation of zinc-dependent aggregates can be detected by a decrease in the fluorescence of bis-ANS in the assay. FIG. 1 depicts the zinc(II) induced Aβ42 aggregation and the disaggregation by BC-147 of the zinc-induced aggregates, measured by bis-ANS fluorescence assay.

Row | Structure (SMILES) | pEC50 [1] | pEC50 [2] | pEC50 [3] | Change in bis-ANS fluorescence after addition of compound to zinc-independent Aβ42 aggregates [1] | Change in bis-ANS fluorescence after addition of compound to zinc-induced Aβ42 aggregates ([3]; 15 μM Aβ42, 15 μM Zn2+, compound at 60.0, 15.0, 3.75, 0.938 or 0.234 μM (FIG. 1)) | Change in bis-ANS fluorescence after addition of compound to amylin aggregates ([2]; compound at 60.0, 15.0, 3.75, 0.938 or 0.234 μM added at about 1440 min (FIG. 5))
1 | N#CC(=Cc1cc2ccc(N(c3ccccc3)c3ccccc3)cc2o1)C(=O)O [BC-146, 2-cyano-3-(6-(diphenylamino)benzofuran-2-yl)acrylic acid] | 5.31 | 6.28 | 6.27 | – | – | –
2 | N#CC(=Cc1ccc(-c2cc3ccc(N(c4ccccc4)c4ccccc4)cc3o2)cc1)C(=O)O [BC-147, 2-cyano-3-(4-(6-(diphenylamino)benzofuran-2-yl)phenyl)acrylic acid] | 4.94 | 6.72 | 5.42 | decrease in bis-ANS fluorescence | decrease in bis-ANS fluorescence | –
3 | N#CC(=Cc1ccc2cc(-c3ccc(N(c4ccccc4)c4ccccc4)cc3)oc2c1)C(=O)O [BC-149, 2-cyano-3-(2-(4-(diphenylamino)phenyl)benzofuran-6-yl)acrylic acid] | 6.30 | 6.82 | 6.18 | – | – | –
4 | N#CC(=Cc1ccc2oc(-c3ccc(N(c4ccccc4)c4ccccc4)cc3)cc2c1)C(=O)O [BC-151, 2-cyano-3-(2-(4-(diphenylamino)phenyl)benzofuran-5-yl)acrylic acid] | 6.21 | 6.34 | 5.31 | – | – | –
5 | N#CC(=Cc1ccc2cc(-c3ccc(N(c4ccccc4)c4ccccc4)cc3)oc2c1)C(N)=O [BC-152, 2-cyano-3-(2-(4-(diphenylamino)phenyl)benzofuran-6-yl)acrylamide] | 5.95 | 6.10 | 5.57 | – | – | –
6 | N#CC(C#N)=Cc1ccc2cc(-c3ccc(N(c4ccccc4)c4ccccc4)cc3)oc2c1 [BC-154, 2-((2-(4-(diphenylamino)phenyl)benzofuran-6-yl)methylene)malononitrile] | – | 5.68 | – | – | – | –
7 | NC(=O)C(=Cc1ccc2cc(-c3ccc(N(c4ccccc4)c4ccccc4)cc3)oc2c1)C(N)=O [BC-155, 2-((2-(4-(diphenylamino)phenyl)benzofuran-6-yl)methylene)malonamide] | 6.34 | 6.74 | 5.96 | – | – | –
8 | COc1ccc(N(c2ccc(OC)cc2)c2ccc(-c3cc4ccc(C=C(C#N)C(=O)O)cc4o3)cc2)cc1 [BC-156, 3-(2-(4-(bis(4-methoxyphenyl)amino)phenyl)benzofuran-6-yl)-2-cyanoacrylic acid] | 5.52 | 6.51 | 5.77 | – | – | –
9 | CC(C)(C)c1ccc(N(c2ccc(-c3cc4ccc(C=C(C#N)C(=O)O)cc4o3)cc2)c2ccc(C(C)(C)C)cc2)cc1 [BC-158, 3-(2-(4-(bis(4-(tert-butyl)phenyl)amino)phenyl)benzofuran-6-yl)-2-cyanoacrylic acid] | – | 5.76 | – | – | – | decrease in bis-ANS fluorescence
10 | N#CC(=Cc1ccc2cc(-c3ccc(N(c4cccnc4)c4cccnc4)cc3)oc2c1)C(=O)O [BC-159, 2-cyano-3-(2-(4-(di(pyridin-3-yl)amino)phenyl)benzofuran-6-yl)acrylic acid] | 5.25 | 5.71 | 5.65 | – | – | –
11 | COC(=O)C(C#N)=Cc1ccc2cc(-c3ccc(N(c4ccccc4)c4ccccc4)cc3)oc2c1 [BC-161, methyl 2-cyano-3-(2-(4-(diphenylamino)phenyl)benzofuran-6-yl)acrylate] | 5.49 | 5.60 | 5.39 | – | – | –
12 | N#CC(=Cc1ccc2cc(-c3ccc(N(c4ccccc4)c4ccccc4)cc3)oc2c1)C(=O)NCc1ccccn1 [BC-163, 2-cyano-3-(2-(4-(diphenylamino)phenyl)benzofuran-6-yl)-N-(pyridin-2-ylmethyl)acrylamide] | 5.75 | 5.74 | 5.65 | – | – | –
13 | N#CC(=Cc1ccc2cc(-c3ccc(N4CCCCC4)cc3)oc2c1)C(=O)O [BC-166, 2-cyano-3-(2-(4-(piperidin-1-yl)phenyl)benzofuran-6-yl)acrylic acid] | – | 6.21 | – | – | – | –
14 | N#CC(=Cc1ccc2cc(-c3ccc(N4CCOCC4)cc3)oc2c1)C(=O)O [BC-169, 2-cyano-3-(2-(4-morpholinophenyl)benzofuran-6-yl)acrylic acid] | – | 6.08 | – | – | – | –
15 | CCN(CC)c1ccc(-c2cc3ccc(C=C(C#N)C(=O)O)cc3o2)cc1 [BC-173, 2-cyano-3-(2-(4-(diethylamino)phenyl)benzofuran-6-yl)acrylic acid] | – | 6.68 | – | – | – | –
16 | CN(c1ccccc1)c1ccc(-c2cc3ccc(C=C(C#N)C(=O)O)cc3o2)cc1 [BC-175, 2-cyano-3-(2-(4-(methyl(phenyl)amino)phenyl)benzofuran-6-yl)acrylic acid] | – | 6.85 | – | – | – | –
17 | O=C(O)CN(CCN(CC(=O)O)CC(=O)O)CC(=O)O [EDTA, reference compound] | – | – | 4.34 | no effect | – | –
18 | O=C(O[C@@H]1Cc2c(O)cc(O)cc2O[C@@H]1c1cc(O)c(O)c(O)c1)c1cc(O)c(O)c(O)c1 [EGCG, Epigallocatechin gallate, reference compound] | – | 6.07 | – | – | – | –
